Values quoted from earlier work as cited in patent US20180117047A1, “DRUG FOR PREVENTING AND/OR TREATING DEMENTIA” (NATIONAL UNIVERSITY CORPORATION TOTTORI UNIVERSITY, priority 2015, published 2018).
Like-named read-outs stand apart in the source and are kept apart here.

System: F11 cell strain, fusion cells of rat primarily cultured nerve cells and mouse neuroblastomas, expressing N141I mutant of presenilin 2
Details: cited from earlier work

For `O=c1[nH]c(=O)c2c[nH]nc2[nH]1` [oxypurinol], the “Nerve cell death caused by addition of ecdysone” value (“Nerve cell death caused” below) (100 μM oxypurinol simultaneously with 100 μM acetyl-L-aspartyl-L-glutamyl-L-valyl-L-aspart-1-al (caspase inhibitor)) is listed as “suppressed” and the “Nerve cell death caused” value (100 μM oxypurinol simultaneously with 300 μM apocynin (NADPH oxidase inhibitor)) is listed as “suppressed”.
For `COc1cc(-c2cnn3c(O)ncnc23)ccc1[S+]([O-])c1ccccc1.[Na]` (single isomer, unassigned; (-)) [(−)-4-hydroxy-8-(3-methoxy-4-phenylsulfinylphenyl)pyrazolo[1,5-a]-1,3,5-triazine sodium salt], the “Nerve cell death caused” value (100 nM xanthine oxidase inhibitor simultaneously with 100 μM acetyl-L-aspartyl-L-glutamyl-L-valyl-L-aspart-1-al (caspase inhibitor)) is given as “suppressed”.
